Assay results taken from the kinase profiling compilation of Christmann-Franck et al. (2016).
Blank lines part the entries; values can stand above or below the molecule they belong to.

Tests used:
Assay in all cases: radiometric filter-binding kinase assay
[1] = test system: AKT1 (human), P31749 [S473D]
CHEK2 (human) = CHEK2 (human) (UniProt O96017)
CSNK1D (human) = CSNK1D (human) (UniProt P48730)
CaMK1 (human) = CaMK1 (human) (UniProt Q14012)
DYRK1A (human) = DYRK1A (human) (UniProt Q13627)
DYRK3 (human) = DYRK3 (human) (UniProt O43781)
EPHB2 (human) = EPHB2 (human) (UniProt P29323)
IKBKB (human) = IKBKB (human) (UniProt O14920)
Sequence of IKBKB (human) (O14920 whole entry, looked up): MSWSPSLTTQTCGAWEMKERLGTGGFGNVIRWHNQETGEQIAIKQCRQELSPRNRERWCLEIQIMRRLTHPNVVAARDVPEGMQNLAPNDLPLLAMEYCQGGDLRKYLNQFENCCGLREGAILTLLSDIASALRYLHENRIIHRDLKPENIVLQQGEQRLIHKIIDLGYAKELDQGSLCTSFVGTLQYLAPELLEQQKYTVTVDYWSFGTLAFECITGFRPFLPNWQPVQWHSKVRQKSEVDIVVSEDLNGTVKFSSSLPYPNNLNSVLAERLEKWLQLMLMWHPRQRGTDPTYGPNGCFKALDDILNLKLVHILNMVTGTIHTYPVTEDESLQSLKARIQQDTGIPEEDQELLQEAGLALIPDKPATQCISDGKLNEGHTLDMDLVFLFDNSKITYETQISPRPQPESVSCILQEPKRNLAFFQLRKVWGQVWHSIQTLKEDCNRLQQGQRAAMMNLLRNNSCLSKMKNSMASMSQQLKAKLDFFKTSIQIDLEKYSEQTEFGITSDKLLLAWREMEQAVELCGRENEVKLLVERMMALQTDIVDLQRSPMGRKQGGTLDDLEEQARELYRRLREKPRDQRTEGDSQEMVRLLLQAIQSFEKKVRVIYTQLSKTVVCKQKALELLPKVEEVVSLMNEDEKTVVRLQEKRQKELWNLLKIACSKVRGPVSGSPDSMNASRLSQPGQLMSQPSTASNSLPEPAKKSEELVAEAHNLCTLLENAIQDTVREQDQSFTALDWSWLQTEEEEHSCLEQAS

IKBKE (human) = IKBKE (human) (UniProt Q14164)
IRAK4 (human) = IRAK4 (human) (UniProt Q9NWZ3)
Sequence of IRAK4 (human) (Q9NWZ3 whole entry, looked up): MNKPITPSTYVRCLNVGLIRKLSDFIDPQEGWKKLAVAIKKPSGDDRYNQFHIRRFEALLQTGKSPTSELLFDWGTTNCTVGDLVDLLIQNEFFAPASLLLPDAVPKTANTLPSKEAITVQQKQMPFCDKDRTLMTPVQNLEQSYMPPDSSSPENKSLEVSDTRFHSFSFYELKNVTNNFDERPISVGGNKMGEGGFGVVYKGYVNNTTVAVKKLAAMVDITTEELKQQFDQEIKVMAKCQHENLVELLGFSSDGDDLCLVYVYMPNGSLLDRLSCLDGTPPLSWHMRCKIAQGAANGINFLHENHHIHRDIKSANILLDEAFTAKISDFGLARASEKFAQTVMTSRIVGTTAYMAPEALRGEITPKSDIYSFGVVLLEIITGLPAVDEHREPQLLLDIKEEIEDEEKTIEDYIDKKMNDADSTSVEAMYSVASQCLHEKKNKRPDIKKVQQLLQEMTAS

JAK2 JH1 JH2 (human) = JAK2 JH1 JH2 (human) (UniProt O60674)
MAP2K1 (human) = MAP2K1 (human) (UniProt Q02750)
MAP3K11 (human) = MAP3K11 (human) (UniProt Q16584)
MAPK14 (human) = MAPK14 (human) (UniProt Q16539)
MAPK3 (human) = MAPK3 (human) (UniProt P27361)
Sequence of MAPK3 (human) (P27361 whole entry, looked up): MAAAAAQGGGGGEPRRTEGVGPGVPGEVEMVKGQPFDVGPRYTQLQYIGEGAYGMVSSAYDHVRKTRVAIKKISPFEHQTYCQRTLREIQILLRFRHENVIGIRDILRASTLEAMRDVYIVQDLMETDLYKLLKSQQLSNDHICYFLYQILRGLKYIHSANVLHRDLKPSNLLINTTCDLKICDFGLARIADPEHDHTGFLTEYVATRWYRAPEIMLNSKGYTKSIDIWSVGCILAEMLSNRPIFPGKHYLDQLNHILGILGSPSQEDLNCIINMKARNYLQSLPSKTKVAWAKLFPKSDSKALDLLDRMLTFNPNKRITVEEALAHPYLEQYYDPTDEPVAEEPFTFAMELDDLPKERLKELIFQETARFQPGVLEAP

MAPK8 (human) = MAPK8 (human) (UniProt P45983)
MAPK9 (human) = MAPK9 (human) (UniProt P45984)
Sequence of MAPK9 (human) (P45984 whole entry, looked up): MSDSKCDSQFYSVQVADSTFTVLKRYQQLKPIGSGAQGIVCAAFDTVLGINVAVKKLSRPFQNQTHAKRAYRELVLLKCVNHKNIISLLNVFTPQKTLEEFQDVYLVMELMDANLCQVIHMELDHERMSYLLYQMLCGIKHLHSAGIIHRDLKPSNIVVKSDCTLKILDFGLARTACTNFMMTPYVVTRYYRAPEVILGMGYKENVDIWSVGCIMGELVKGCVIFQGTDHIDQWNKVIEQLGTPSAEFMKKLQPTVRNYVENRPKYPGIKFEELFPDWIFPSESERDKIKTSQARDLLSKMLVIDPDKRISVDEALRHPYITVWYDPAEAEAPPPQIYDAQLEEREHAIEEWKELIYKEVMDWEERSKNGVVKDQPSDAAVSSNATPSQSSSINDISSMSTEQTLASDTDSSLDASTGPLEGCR

MAPKAPK2 (human) = MAPKAPK2 (human) (UniProt P49137)
Sequence of MAPKAPK2 (human) (P49137 whole entry, looked up): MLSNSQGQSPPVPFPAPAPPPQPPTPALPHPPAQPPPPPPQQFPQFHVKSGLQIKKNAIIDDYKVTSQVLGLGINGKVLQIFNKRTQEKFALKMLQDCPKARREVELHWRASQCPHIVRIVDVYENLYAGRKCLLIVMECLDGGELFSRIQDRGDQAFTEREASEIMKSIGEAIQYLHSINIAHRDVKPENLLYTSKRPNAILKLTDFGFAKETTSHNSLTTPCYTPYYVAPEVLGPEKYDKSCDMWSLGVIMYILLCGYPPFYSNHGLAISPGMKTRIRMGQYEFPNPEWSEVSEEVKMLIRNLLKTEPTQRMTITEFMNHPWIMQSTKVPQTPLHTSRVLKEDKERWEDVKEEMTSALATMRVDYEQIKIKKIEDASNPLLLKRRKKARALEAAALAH

MARK1 (human) = MARK1 (human) (UniProt Q9P0L2)
MARK2 (human) = MARK2 (human) (UniProt Q7KZI7)
MARK3 (human) = MARK3 (human) (UniProt P27448)
MKNK1 (human) = MKNK1 (human) (UniProt Q9BUB5)
MKNK2 (human) = MKNK2 (human) (UniProt Q9HBH9)
NEK2 (human) = NEK2 (human) (UniProt P51955)
Sequence of NEK2 (human) (P51955 whole entry, looked up): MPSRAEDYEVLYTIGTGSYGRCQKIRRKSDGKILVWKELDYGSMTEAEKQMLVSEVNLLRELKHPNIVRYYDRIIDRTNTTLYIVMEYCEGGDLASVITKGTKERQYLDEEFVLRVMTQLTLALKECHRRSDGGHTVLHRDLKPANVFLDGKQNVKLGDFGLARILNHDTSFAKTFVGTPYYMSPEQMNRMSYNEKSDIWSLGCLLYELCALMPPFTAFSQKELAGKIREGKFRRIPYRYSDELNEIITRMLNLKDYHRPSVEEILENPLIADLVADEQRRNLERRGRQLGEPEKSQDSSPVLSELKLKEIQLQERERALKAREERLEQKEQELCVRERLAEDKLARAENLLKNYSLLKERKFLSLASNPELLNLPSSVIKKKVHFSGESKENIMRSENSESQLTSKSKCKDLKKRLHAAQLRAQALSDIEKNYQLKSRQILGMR

NEK6 (human) = NEK6 (human) (UniProt Q9HC98)
NTRK1 (human) = NTRK1 (human) (UniProt P04629)
Sequence of NTRK1 (human) (P04629 whole entry, looked up): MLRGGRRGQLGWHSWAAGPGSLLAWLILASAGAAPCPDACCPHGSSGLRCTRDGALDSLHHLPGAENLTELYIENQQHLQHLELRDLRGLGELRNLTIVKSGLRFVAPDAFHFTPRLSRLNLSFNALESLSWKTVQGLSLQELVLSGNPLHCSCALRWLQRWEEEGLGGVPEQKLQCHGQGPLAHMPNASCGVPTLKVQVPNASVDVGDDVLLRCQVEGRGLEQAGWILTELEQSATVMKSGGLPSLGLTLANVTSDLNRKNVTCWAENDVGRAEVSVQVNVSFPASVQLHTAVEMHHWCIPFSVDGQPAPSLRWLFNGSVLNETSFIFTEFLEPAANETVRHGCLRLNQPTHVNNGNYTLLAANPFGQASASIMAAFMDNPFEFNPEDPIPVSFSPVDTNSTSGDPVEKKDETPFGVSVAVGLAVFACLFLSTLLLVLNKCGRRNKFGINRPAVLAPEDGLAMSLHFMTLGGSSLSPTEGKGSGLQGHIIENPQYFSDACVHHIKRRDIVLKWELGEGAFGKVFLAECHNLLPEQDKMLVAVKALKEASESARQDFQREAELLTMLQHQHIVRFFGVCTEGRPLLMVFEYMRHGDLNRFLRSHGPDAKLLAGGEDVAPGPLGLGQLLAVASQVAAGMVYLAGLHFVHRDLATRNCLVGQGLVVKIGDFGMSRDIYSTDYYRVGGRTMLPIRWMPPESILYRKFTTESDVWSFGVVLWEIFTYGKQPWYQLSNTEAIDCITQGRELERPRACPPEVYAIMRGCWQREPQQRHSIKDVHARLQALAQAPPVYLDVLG

NUAK1 (human) = NUAK1 (human) (UniProt O60285)
PAK4 (human) = PAK4 (human) (UniProt O96013)
Sequence of PAK4 (human) (O96013 whole entry, looked up): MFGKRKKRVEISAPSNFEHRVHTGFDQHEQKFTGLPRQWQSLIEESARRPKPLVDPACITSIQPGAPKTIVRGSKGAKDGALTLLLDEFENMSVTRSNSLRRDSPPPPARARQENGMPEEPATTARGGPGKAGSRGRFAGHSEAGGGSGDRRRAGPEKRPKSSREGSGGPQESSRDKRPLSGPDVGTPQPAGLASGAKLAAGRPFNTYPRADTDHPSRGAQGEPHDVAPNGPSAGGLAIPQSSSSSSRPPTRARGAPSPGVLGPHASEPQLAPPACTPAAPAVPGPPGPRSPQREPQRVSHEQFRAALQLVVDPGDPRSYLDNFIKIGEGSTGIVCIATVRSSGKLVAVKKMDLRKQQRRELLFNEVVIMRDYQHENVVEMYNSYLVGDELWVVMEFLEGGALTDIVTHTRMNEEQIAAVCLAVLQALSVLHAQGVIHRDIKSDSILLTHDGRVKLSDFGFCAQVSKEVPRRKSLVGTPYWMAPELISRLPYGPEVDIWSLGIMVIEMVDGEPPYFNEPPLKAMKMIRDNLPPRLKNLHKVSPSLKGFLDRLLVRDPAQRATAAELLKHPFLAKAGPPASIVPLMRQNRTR

PIM1 (human) = PIM1 (human) (UniProt P11309)
RPS6KA1 KD1 KD2 (human) = RPS6KA1 KD1 KD2 (human) (UniProt Q15418)
[2] = test system: RPS6KB1 (human), P23443 [T412E]
[3] = target: STK11 CAB39 STRADA (human) (UniProt Q9Y376+Q7RTN6+Q15831)
STK3 (human) = STK3 (human) (UniProt Q13188)
TBK1 (human) = TBK1 (human) (UniProt Q9UHD2)
TTK (human) = TTK (human) (UniProt P33981)

Sequence of AKT1 (human), P31749 [S473D] (P31749 whole entry S473D, looked up): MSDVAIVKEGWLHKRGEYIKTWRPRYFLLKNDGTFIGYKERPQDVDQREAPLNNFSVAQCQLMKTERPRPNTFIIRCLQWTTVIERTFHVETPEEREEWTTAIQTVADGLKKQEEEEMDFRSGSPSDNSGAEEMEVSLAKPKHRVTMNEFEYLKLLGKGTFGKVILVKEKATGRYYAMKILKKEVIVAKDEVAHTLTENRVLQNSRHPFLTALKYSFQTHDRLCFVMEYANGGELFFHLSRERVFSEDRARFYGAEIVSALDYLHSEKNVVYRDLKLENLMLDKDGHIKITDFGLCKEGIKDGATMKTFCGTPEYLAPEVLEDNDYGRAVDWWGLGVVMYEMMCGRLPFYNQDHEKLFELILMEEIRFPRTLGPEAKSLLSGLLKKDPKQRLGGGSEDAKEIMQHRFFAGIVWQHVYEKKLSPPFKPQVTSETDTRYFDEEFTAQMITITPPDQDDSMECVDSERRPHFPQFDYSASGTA

residual activity ([1]; compound 0.1 µM): 99%
residual activity ([1]; compound 1.0 µM): 97%
residual activity (CHEK2 (human); compound 0.1 µM): 92%
residual activity (CHEK2 (human); compound 1.0 µM): 84%
residual activity (CHEK2 (human); compound 10.0 µM): 82%
residual activity (CSNK1D (human); compound 0.1 µM): 88%
residual activity (CSNK1D (human); compound 1.0 µM): 87%
residual activity (CSNK1D (human); compound 10.0 µM): 81%
residual activity (CaMK1 (human); compound 0.1 µM): 106%
residual activity (CaMK1 (human); compound 1.0 µM): 101%
residual activity (CaMK1 (human); compound 10.0 µM): 89%
residual activity (DYRK1A (human); compound 0.1 µM): 83%
residual activity (DYRK1A (human); compound 1.0 µM): 91%
residual activity (DYRK1A (human); compound 10.0 µM): 84%
residual activity (DYRK3 (human); compound 0.1 µM): 93%
residual activity (DYRK3 (human); compound 1.0 µM): 98%
residual activity (DYRK3 (human); compound 10.0 µM): 93%
residual activity (EPHB2 (human); compound 0.1 µM): 115%
residual activity (EPHB2 (human); compound 1.0 µM): 105%
residual activity (EPHB2 (human); compound 10.0 µM): 108%
residual activity (IKBKB (human); compound 0.1 µM): 91%
residual activity (IKBKB (human); compound 1.0 µM): 97%
residual activity (IKBKB (human); compound 10.0 µM): 100%
residual activity (IKBKE (human); compound 0.1 µM): 106%
residual activity (IKBKE (human); compound 1.0 µM): 95%
residual activity (IKBKE (human); compound 10.0 µM): 86%
residual activity (IRAK4 (human); compound 0.1 µM): 72%
residual activity (IRAK4 (human); compound 1.0 µM): 66%
residual activity (IRAK4 (human); compound 10.0 µM): 67%
residual activity (JAK2 JH1 JH2 (human); compound 0.1 µM): 118%
residual activity (JAK2 JH1 JH2 (human); compound 1.0 µM): 98%
residual activity (JAK2 JH1 JH2 (human); compound 10.0 µM): 100%
residual activity (MAP2K1 (human); compound 0.1 µM): 97%
residual activity (MAP2K1 (human); compound 1.0 µM): 102%
residual activity (MAP2K1 (human); compound 10.0 µM): 97%
residual activity (MAP3K11 (human); compound 0.1 µM): 102%
residual activity (MAP3K11 (human); compound 1.0 µM): 106%
residual activity (MAP3K11 (human); compound 10.0 µM): 109%
residual activity (MAPK14 (human); compound 0.1 µM): 95%
residual activity (MAPK14 (human); compound 1.0 µM): 87%
residual activity (MAPK14 (human); compound 10.0 µM): 80%
residual activity (MAPK3 (human); compound 1.0 µM): 97%
residual activity (MAPK3 (human); compound 10.0 µM): 85%
residual activity (MAPK8 (human); compound 0.1 µM): 98%
residual activity (MAPK8 (human); compound 1.0 µM): 94%
residual activity (MAPK9 (human); compound 0.1 µM): 85%
residual activity (MAPK9 (human); compound 1.0 µM): 90%
residual activity (MAPK9 (human); compound 10.0 µM): 88%
residual activity (MAPKAPK2 (human); compound 0.1 µM): 98%
residual activity (MAPKAPK2 (human); compound 1.0 µM): 95%
residual activity (MAPKAPK2 (human); compound 10.0 µM): 91%
residual activity (MARK1 (human); compound 0.1 µM): 114%
residual activity (MARK1 (human); compound 1.0 µM): 112%
residual activity (MARK1 (human); compound 10.0 µM): 104%
residual activity (MARK2 (human); compound 0.1 µM): 89%
residual activity (MARK2 (human); compound 1.0 µM): 97%
residual activity (MARK2 (human); compound 10.0 µM): 83%
residual activity (MARK3 (human); compound 0.1 µM): 101%
residual activity (MARK3 (human); compound 1.0 µM): 107%
residual activity (MARK3 (human); compound 10.0 µM): 105%
residual activity (MKNK1 (human); compound 0.1 µM): 101%
residual activity (MKNK1 (human); compound 1.0 µM): 92%
residual activity (MKNK1 (human); compound 10.0 µM): 93%
residual activity (MKNK2 (human); compound 0.1 µM): 111%
residual activity (MKNK2 (human); compound 1.0 µM): 98%
residual activity (MKNK2 (human); compound 10.0 µM): 102%
residual activity (NEK2 (human); compound 0.1 µM): 110%
residual activity (NEK2 (human); compound 1.0 µM): 103%
residual activity (NEK2 (human); compound 10.0 µM): 108%
residual activity (NEK6 (human); compound 0.1 µM): 92%
residual activity (NEK6 (human); compound 1.0 µM): 86%
residual activity (NEK6 (human); compound 10.0 µM): 84%
residual activity (NTRK1 (human); compound 0.1 µM): 103%
residual activity (NTRK1 (human); compound 1.0 µM): 110%
residual activity (NTRK1 (human); compound 10.0 µM): 86%
residual activity (NUAK1 (human); compound 0.1 µM): 105%
residual activity (NUAK1 (human); compound 1.0 µM): 108%
residual activity (NUAK1 (human); compound 10.0 µM): 101%
residual activity (PAK4 (human); compound 0.1 µM): 91%
residual activity (PAK4 (human); compound 1.0 µM): 91%
residual activity (PAK4 (human); compound 10.0 µM): 85%
residual activity (PIM1 (human); compound 0.1 µM): 100%
residual activity (PIM1 (human); compound 1.0 µM): 95%
residual activity (PIM1 (human); compound 10.0 µM): 95%
residual activity (RPS6KA1 KD1 KD2 (human); compound 0.1 µM): 95%
residual activity (RPS6KA1 KD1 KD2 (human); compound 1.0 µM): 98%
residual activity (RPS6KA1 KD1 KD2 (human); compound 10.0 µM): 81%
residual activity ([2]; compound 0.1 µM): 114%
residual activity ([2]; compound 1.0 µM): 108%
residual activity ([2]; compound 10.0 µM): 100%
residual activity ([3]; compound 0.1 µM): 93%
residual activity ([3]; compound 1.0 µM): 89%
residual activity ([3]; compound 10.0 µM): 98%
residual activity (STK3 (human); compound 0.1 µM): 96%
residual activity (STK3 (human); compound 1.0 µM): 90%
residual activity (STK3 (human); compound 10.0 µM): 94%
residual activity (TBK1 (human); compound 0.1 µM): 111%
residual activity (TBK1 (human); compound 10.0 µM): 93%
residual activity (TTK (human); compound 0.1 µM): 95%
residual activity (TTK (human); compound 1.0 µM): 91%
residual activity (TTK (human); compound 10.0 µM): 86%
Compound: CCCCCc1ccc(/C=C/[C@H](O)[C@@H](CO)NC)cc1

residual activity ([1]; compound 1.0 µM): 108%
residual activity ([1]; compound 10.0 µM): 102%
residual activity (CHEK2 (human); compound 1.0 µM): 119%
residual activity (CHEK2 (human); compound 10.0 µM): 97%
residual activity (CSNK1D (human); compound 1.0 µM): 97%
residual activity (CSNK1D (human); compound 10.0 µM): 102%
residual activity (CaMK1 (human); compound 1.0 µM): 98%
residual activity (CaMK1 (human); compound 10.0 µM): 81%
residual activity (DYRK1A (human); compound 1.0 µM): 103%
residual activity (DYRK1A (human); compound 10.0 µM): 91%
residual activity (DYRK3 (human); compound 1.0 µM): 103%
residual activity (DYRK3 (human); compound 10.0 µM): 93%
residual activity (EPHB2 (human); compound 1.0 µM): 120%
residual activity (EPHB2 (human); compound 10.0 µM): 109%
residual activity (IKBKB (human); compound 1.0 µM): 87%
residual activity (IKBKB (human); compound 10.0 µM): 88%
residual activity (IKBKE (human); compound 1.0 µM): 104%
residual activity (IKBKE (human); compound 10.0 µM): 99%
residual activity (IRAK4 (human); compound 1.0 µM): 83%
residual activity (IRAK4 (human); compound 10.0 µM): 95%
residual activity (JAK2 JH1 JH2 (human); compound 1.0 µM): 103%
residual activity (JAK2 JH1 JH2 (human); compound 10.0 µM): 90%
residual activity (MAP2K1 (human); compound 1.0 µM): 77%
residual activity (MAP2K1 (human); compound 10.0 µM): 65%
residual activity (MAP3K11 (human); compound 1.0 µM): 108%
residual activity (MAP3K11 (human); compound 10.0 µM): 98%
residual activity (MAPK14 (human); compound 1.0 µM): 102%
residual activity (MAPK14 (human); compound 10.0 µM): 83%
residual activity (MAPK3 (human); compound 1.0 µM): 125%
residual activity (MAPK3 (human); compound 10.0 µM): 115%
residual activity (MAPK8 (human); compound 1.0 µM): 85%
residual activity (MAPK8 (human); compound 10.0 µM): 87%
residual activity (MAPK9 (human); compound 1.0 µM): 85%
residual activity (MAPK9 (human); compound 10.0 µM): 86%
residual activity (MAPKAPK2 (human); compound 1.0 µM): 108%
residual activity (MAPKAPK2 (human); compound 10.0 µM): 93%
residual activity (MARK1 (human); compound 1.0 µM): 99%
residual activity (MARK1 (human); compound 10.0 µM): 98%
residual activity (MARK2 (human); compound 1.0 µM): 104%
residual activity (MARK2 (human); compound 10.0 µM): 102%
residual activity (MARK3 (human); compound 1.0 µM): 108%
residual activity (MARK3 (human); compound 10.0 µM): 108%
residual activity (MKNK1 (human); compound 1.0 µM): 101%
residual activity (MKNK1 (human); compound 10.0 µM): 99%
residual activity (MKNK2 (human); compound 1.0 µM): 90%
residual activity (MKNK2 (human); compound 10.0 µM): 93%
residual activity (NEK2 (human); compound 1.0 µM): 107%
residual activity (NEK2 (human); compound 10.0 µM): 95%
residual activity (NEK6 (human); compound 1.0 µM): 99%
residual activity (NEK6 (human); compound 10.0 µM): 91%
residual activity (NTRK1 (human); compound 1.0 µM): 103%
residual activity (NTRK1 (human); compound 10.0 µM): 112%
residual activity (NUAK1 (human); compound 1.0 µM): 115%
residual activity (NUAK1 (human); compound 10.0 µM): 100%
residual activity (PAK4 (human); compound 1.0 µM): 101%
residual activity (PAK4 (human); compound 10.0 µM): 89%
residual activity (PIM1 (human); compound 1.0 µM): 105%
residual activity (PIM1 (human); compound 10.0 µM): 106%
residual activity (RPS6KA1 KD1 KD2 (human); compound 1.0 µM): 107%
residual activity (RPS6KA1 KD1 KD2 (human); compound 10.0 µM): 114%
residual activity ([2]; compound 1.0 µM): 115%
residual activity ([2]; compound 10.0 µM): 111%
residual activity ([3]; compound 1.0 µM): 103%
residual activity ([3]; compound 10.0 µM): 95%
residual activity (STK3 (human); compound 1.0 µM): 112%
residual activity (STK3 (human); compound 10.0 µM): 112%
residual activity (TBK1 (human); compound 1.0 µM): 99%
residual activity (TBK1 (human); compound 10.0 µM): 91%
residual activity (TTK (human); compound 1.0 µM): 73%
residual activity (TTK (human); compound 10.0 µM): 76%
Compound: Cc1ccc(=O)n(-c2ccccc2)c1
